Results taken from PMC5041959, “A high-content EMT screen identifies multiple receptor tyrosine kinase inhibitors with activity on TGFβ receptor” (Oncotarget, 2016).
Like-named read-outs stand apart in the source and are kept apart here.

What was measured:
[1] = molecular target: SRC (Homo sapiens, UniProt P12931); test: Biochemical kinase profiling (33PanQinase radiometric assay)
[2] = molecular target: ROCK2 (Homo sapiens, UniProt O75116); test: as above
[3] = test system: NMuMG cells; test: High-content microscopy EMT screen in TGFβ-treated NMuMG cells (FA, SF, FN, cell count); format: cell-based, murine
[4] = molecular target: PDGFRB (Homo sapiens, UniProt P09619); test: Biochemical kinase profiling (33PanQinase radiometric assay)
Chain of PDGFRB (P09619 33-1106): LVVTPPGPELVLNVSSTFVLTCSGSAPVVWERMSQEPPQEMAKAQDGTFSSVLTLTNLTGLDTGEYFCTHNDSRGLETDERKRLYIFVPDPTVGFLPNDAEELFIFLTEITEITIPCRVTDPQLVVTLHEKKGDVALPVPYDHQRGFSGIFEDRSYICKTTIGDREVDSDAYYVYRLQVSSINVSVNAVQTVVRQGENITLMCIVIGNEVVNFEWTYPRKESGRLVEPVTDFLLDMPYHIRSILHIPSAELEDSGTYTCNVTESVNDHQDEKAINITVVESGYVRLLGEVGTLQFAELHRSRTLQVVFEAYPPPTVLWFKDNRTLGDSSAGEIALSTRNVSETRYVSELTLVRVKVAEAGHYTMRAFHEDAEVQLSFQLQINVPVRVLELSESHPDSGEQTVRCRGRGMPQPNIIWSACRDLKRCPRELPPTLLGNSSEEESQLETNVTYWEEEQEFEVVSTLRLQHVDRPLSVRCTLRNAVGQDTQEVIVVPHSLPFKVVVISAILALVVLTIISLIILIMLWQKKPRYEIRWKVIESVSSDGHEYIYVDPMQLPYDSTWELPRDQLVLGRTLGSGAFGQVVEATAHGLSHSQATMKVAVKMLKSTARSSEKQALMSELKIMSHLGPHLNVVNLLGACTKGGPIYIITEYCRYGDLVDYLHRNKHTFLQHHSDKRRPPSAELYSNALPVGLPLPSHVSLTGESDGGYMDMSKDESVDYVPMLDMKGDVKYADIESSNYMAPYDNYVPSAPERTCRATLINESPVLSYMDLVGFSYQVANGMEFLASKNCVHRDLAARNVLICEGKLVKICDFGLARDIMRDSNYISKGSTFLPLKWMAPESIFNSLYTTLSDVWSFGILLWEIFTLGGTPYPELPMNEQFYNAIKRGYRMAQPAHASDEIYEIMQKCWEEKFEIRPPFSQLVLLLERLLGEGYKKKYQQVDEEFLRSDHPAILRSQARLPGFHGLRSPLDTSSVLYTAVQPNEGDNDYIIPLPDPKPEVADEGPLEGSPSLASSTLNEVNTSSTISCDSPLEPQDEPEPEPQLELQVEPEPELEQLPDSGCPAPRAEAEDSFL

[5] = molecular target: TGFBR2 (Homo sapiens, UniProt P37173); test: as above
Chain of TGFBR2 (P37173 23-567): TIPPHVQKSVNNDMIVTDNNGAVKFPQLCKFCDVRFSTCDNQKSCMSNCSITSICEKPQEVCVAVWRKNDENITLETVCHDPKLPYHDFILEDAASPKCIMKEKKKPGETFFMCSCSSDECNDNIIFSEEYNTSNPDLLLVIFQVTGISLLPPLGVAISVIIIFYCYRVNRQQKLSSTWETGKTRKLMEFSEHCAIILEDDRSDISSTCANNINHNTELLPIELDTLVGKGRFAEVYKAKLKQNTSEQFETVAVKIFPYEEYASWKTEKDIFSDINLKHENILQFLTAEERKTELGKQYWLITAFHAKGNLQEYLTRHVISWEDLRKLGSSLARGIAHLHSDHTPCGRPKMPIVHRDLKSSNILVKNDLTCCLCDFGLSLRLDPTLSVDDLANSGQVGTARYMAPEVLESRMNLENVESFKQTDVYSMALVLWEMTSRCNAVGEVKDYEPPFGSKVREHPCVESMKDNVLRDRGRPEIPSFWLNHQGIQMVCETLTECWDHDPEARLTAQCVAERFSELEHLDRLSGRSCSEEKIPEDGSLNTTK

[6] = molecular target: T1, TGFBR1 (Homo sapiens, UniProt P36897); test: as above
T1 sequence (P36897 34-503): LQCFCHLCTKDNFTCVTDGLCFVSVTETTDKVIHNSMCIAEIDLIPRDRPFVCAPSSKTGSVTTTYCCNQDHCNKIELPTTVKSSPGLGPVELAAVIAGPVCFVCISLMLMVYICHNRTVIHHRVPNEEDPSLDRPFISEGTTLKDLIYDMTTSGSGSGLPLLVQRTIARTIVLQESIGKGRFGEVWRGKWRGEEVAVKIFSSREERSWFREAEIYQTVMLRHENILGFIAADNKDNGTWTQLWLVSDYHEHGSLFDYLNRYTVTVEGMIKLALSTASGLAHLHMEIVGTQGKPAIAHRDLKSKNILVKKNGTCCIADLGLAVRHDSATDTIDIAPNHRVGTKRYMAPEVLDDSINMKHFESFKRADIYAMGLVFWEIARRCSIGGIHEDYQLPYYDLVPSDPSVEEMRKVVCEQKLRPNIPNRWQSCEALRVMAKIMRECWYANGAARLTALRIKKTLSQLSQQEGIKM

[7] = molecular target: ROCK1 (Homo sapiens, UniProt Q13464); test: as above
[8] = test system: Py2T cells; test: High-content microscopy EMT assay in TGFβ-treated Py2T breast cancer cells; format: cell-based, murine
[9] = test system: ROCK; test: ROCK cellular assay (MLC Thr18/Ser19 phosphorylation ELISA in A7r5 cells); format: cell-based, rat; settings: 90 min compound
[10] = molecular target: FGFR4 (Homo sapiens, UniProt P22455); test: Biochemical kinase profiling (33PanQinase radiometric assay); settings: read-out: FGFR4 IC50; ATP at apparent Km
[11] = molecular target: PDGFRA (Homo sapiens, UniProt P16234); test: as above; settings: read-out: PDGFRA IC50; ATP at apparent Km
[12] = molecular target: FGFR2 (Homo sapiens, UniProt P21802); test: as above; settings: read-out: FGFR2 IC50; ATP at apparent Km
Chain of FGFR2 (P21802 22-821): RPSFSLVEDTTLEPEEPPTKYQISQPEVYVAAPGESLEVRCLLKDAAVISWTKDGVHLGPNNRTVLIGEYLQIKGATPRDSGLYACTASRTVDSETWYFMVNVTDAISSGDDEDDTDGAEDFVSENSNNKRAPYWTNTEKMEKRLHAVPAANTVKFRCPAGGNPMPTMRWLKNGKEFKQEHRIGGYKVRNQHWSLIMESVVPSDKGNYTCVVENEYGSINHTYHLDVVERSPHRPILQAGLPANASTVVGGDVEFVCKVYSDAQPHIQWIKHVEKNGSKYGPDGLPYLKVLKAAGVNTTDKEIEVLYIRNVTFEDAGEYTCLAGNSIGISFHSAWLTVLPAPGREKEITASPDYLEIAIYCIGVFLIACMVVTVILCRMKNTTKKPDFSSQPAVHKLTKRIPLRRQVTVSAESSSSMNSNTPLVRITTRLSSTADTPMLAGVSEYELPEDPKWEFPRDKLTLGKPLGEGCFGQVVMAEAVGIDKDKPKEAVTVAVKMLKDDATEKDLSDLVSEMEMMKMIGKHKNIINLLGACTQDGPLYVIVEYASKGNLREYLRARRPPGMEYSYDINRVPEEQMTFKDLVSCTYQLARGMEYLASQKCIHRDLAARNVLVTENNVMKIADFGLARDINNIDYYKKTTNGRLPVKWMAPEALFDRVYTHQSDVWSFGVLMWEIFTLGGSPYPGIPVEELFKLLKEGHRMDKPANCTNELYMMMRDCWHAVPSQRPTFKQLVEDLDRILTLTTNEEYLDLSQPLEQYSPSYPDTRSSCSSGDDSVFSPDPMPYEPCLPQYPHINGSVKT

[13] = Mus musculus; NMuMG; cell count decreased by 50% compared to DMSO control; read-out: Tox IC50
[14] = NMuMG, TGFβ1 2 ng/ml plus compound, 4 days; parameter decreased by 50%
[15] = NMuMG; compared to reference 10 μM SB-431542 = 100%
[16] = NMuMG, TGFβ1 2 ng/ml plus compound, 4 days; parameter decreased by 50%; read-out: FA IC50 (focal adhesion formation)
[17] = NMuMG, TGFβ1 2 ng/ml plus compound, 4 days; parameter decreased by 50%; read-out: FN IC50 (fibronectin patch formation)
[18] = NMuMG, TGFβ1 2 ng/ml plus compound, 4 days; parameter decreased by 50%; read-out: SF IC50 (stress fibers)
[19] = NMuMG; cell count decreased by 50% compared to DMSO control; read-out: Tox IC50
[20] = NMuMG; mean of IC50 values obtained for FA, SF, FN; read-out: EMT (FA/SF/FN) combined IC50
[21] = Mus musculus, read-out: CCI IC50 (cell count increase)
[22] = Mus musculus, read-out: Emax (maximal effect on cell count)
[23] = Mus musculus, read-out: Tox IC50
[24] = Py2T; cell count decreased by 50% compared to DMSO control; read-out: Tox IC50
[25] = Py2T; compared to 10 μM SB-431542; read-out: CCI IC50 (cell count increase)
[26] = Py2T; compared to reference 10 μM SB-431542 = 100%
[27] = NMuMG; cell count increased by 50% compared to 100% with 10 μM SB-431542; read-out: CCI IC50 (cell count increase)
[28] = read-out: PDGFRB IC50, ATP at apparent Km
[29] = read-out: TGFBR2 IC50, ATP at apparent Km
[30] = read-out: TGFBR1 IC50, ATP at apparent Km
[31] = Py2T, TGFβ plus compound, 4 days
[32] = Mus musculus, 96 h; NMuMG, TGFβ1 2 ng/ml plus compound, 4 days; parameter decreased by 50%; read-out: FA IC50 (focal adhesion formation)
[33] = Mus musculus, 96 h; NMuMG, TGFβ1 2 ng/ml plus compound, 4 days; parameter decreased by 50%; read-out: FN IC50 (fibronectin patch formation)
[34] = Mus musculus, 96 h; NMuMG, TGFβ1 2 ng/ml plus compound, 4 days; parameter decreased by 50%; read-out: SF IC50 (stress fibers)
[35] = Mus musculus; NMuMG; mean of IC50 values obtained for FA, SF, FN; read-out: EMT (FA/SF/FN) combined IC50
[36] = Mus musculus; read-out: CCI IC50 (cell count increase)
[37] = Mus musculus; read-out: Emax (maximal effect on cell count)

Chain of SRC (P12931 whole entry): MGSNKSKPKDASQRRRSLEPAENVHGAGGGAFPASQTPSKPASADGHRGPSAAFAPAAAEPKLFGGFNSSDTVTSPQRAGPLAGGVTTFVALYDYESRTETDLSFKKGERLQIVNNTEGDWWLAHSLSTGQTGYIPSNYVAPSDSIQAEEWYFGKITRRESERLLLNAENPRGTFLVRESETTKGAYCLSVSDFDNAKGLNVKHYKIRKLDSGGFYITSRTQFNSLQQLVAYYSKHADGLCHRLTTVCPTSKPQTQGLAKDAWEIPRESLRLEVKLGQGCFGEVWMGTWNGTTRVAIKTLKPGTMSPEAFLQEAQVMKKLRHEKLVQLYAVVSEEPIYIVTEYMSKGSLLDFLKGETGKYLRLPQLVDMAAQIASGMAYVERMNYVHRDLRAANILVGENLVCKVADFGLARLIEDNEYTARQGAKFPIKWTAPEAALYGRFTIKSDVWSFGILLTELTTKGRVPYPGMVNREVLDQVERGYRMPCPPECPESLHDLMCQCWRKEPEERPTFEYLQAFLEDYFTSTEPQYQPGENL
Chain of ROCK2 (O75116 whole entry): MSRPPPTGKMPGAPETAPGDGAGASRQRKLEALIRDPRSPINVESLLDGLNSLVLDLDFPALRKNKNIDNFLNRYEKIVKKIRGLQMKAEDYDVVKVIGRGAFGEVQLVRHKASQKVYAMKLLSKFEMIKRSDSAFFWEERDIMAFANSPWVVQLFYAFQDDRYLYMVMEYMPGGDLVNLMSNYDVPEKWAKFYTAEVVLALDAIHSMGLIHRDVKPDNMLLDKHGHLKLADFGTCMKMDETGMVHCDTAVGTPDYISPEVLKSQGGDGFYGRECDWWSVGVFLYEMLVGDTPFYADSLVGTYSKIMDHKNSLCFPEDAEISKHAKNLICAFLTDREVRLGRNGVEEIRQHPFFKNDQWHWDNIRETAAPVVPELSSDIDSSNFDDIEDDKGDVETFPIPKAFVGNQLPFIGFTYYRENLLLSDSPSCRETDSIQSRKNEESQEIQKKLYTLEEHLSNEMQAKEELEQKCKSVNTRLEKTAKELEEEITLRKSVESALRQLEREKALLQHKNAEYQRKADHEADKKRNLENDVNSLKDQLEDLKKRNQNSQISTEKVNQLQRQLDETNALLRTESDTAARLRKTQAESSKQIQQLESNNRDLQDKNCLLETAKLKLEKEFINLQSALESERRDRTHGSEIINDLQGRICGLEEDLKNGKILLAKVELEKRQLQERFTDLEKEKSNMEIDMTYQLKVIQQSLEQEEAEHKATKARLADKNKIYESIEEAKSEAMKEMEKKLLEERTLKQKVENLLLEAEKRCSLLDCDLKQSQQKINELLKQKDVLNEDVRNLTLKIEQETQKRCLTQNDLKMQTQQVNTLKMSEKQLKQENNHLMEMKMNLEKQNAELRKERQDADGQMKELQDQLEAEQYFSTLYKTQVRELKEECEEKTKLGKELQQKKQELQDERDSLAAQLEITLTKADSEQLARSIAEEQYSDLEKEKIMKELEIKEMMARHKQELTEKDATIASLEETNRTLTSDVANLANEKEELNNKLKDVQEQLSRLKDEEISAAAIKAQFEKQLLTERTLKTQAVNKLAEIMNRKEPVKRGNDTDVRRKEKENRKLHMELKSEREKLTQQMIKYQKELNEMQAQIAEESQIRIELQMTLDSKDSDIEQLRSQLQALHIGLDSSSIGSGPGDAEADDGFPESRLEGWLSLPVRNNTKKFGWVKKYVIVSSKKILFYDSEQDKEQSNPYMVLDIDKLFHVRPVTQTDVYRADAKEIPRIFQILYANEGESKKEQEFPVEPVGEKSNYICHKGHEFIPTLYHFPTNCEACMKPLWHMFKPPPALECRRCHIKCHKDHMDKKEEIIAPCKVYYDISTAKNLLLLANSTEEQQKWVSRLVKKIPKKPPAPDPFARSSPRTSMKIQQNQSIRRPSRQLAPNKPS

CCN1CCN(c2ccc(Nc3cc(N(C)C(=O)Nc4c(Cl)c(OC)cc(OC)c4Cl)ncn3)cc2)CC1 [BGJ398]
IC50 [1]: 7.94 µM
IC50 [2]: > 10 µM
IC50 [3, 13]: 1.5 µM
FA IC50 (focal adhesion formation) [3, 14]: n.m.
FN IC50 (fibronectin patch formation) [3, 14]: n.m.
SF IC50 (stress fibers) [3, 14]: n.m.
Emax (maximal effect on cell count) [3, 15]: n.m.
IC50 [4]: 7.43 µM
IC50 [5]: > 10 µM
IC50 [6]: > 10 µM
IC50 [7]: > 10 µM

Cc1ccc2c(c1)C(=O)C1(O)CCN(c3ccccc3)C1=N2 (centres unmarked) [Blebbistatin]
IC50 ([1]; read-out: SRC IC50, ATP at apparent Km): 4.37 µM
IC50 [3, 16]: 4.22 µM
IC50 [3, 17]: 2.55 µM
IC50 [3, 18]: 3.32 µM
IC50 [3, 19]: > 5.13 µM
Emax (maximal effect on cell count) [3, 15]: 29.4%
IC50 [3, 20]: 3.36 µM

O=S(=O)(c1cccc2cnccc12)N1CCCNCC1 [Fasudil]
IC50 [8, 21]: 1.68 µM
Emax [8, 22]: 53.6%
IC50 [8, 23]: > 25 µM
IC50 [3, 21]: 2.87 µM
IC50 ([3]; Mus musculus, read-out: EMT (FA/SF/FN) combined IC50): 3.02 µM
Emax [3, 22]: 28.2%
IC50 [3, 23]: > 25 µM

CCn1c(-c2nonc2N)nc2cnc(Oc3cccc(NC(=O)c4ccc(OCCN5CCOCC5)cc4)c3)cc21 [GSK269962]
IC50 ([8]; Py2T, TGFβ plus compound, 4 days; read-out: FA IC50 (focal adhesions)): 0.002 µM
IC50 ([8]; Py2T, TGFβ plus compound, 4 days; read-out: FN IC50 (fibronectin patches)): 0.005 µM
IC50 ([8]; Py2T, TGFβ plus compound, 4 days; read-out: SF IC50 (stress fibers)): 0.002 µM
IC50 [8, 24]: 0.564 µM
IC50 [8, 25]: 0.0005 µM
Emax (maximal effect on cell count) [8, 26]: 53%
IC50 [9]: < 0.003 µM

Cc1ccc(-c2nn(C(C)(C)C)c3ncnc(N)c23)cc1 [PP1]
IC50 [10]: 0.622 µM
IC50 [11]: 3.69 µM
IC50 [12]: 0.456 µM
IC50 [3, 16]: 0.91 µM
IC50 [3, 17]: 1.52 µM
IC50 [3, 18]: 1.14 µM
IC50 [3, 19]: 11.4 µM
IC50 [3, 27]: 0.374 µM
Emax (maximal effect on cell count) [3, 15]: 22.3%
IC50 [3, 20]: 1.19 µM
IC50 [4, 28]: 0.132 µM
IC50 [5, 29]: 1.31 µM
IC50 [6, 30]: 0.297 µM

O=C(Nc1ccc(-c2cn[nH]c2)cc1)C1COc2ccccc2O1 (centres unmarked) [Rho kinase inhibitor V]
FA IC50 (focal adhesions) [8, 31]: n.m.
FN IC50 (fibronectin patches) [8, 31]: n.m.
SF IC50 (stress fibers) [8, 31]: n.m.
IC50 [8, 24]: 2.51 µM
IC50 [8, 25]: 0.101 µM
Emax (maximal effect on cell count) [8, 26]: 33.3%
IC50 [3, 16]: 0.425 µM
IC50 [3, 17]: 0.374 µM
IC50 [3, 18]: 0.571 µM
IC50 [3, 19]: 6.23 µM
IC50 [3, 27]: 0.106 µM
Emax (maximal effect on cell count) [3, 15]: 13.4%
IC50 [3, 20]: 0.457 µM
IC50 [9]: 0.15 µM

CCn1c(-c2nonc2N)nc2cncc(C(=O)N3CC[C@H](N)C3)c21 [SB-772077B]
IC50 [8, 21]: 0.0284 µM
Emax [8, 22]: 63.6%
IC50 [8, 23]: 1.96 µM
IC50 [3, 32]: 0.051 µM
IC50 [3, 33]: 0.054 µM
IC50 [3, 34]: 0.029 µM
IC50 [3, 21]: 0.0505 µM
Emax [3, 22]: 30.5%
IC50 [3, 13]: 5.33 µM
IC50 [3, 35]: 0.0447 µM
IC50 ([9]; Rattus norvegicus, 1.5 h): 0.028 µM

CN(C)CCOc1cc(-c2cn[nH]c2)ccc1NC(=O)C1COc2ccccc2O1 (centres unmarked) [SR-3677]
IC50 [2]: 0.076 µM
IC50 ([8]; Mus musculus, 96 h; Py2T, TGFβ plus compound, 4 days; read-out: FA IC50 (focal adhesions)): 0.415 µM
IC50 ([8]; Mus musculus, 96 h; Py2T, TGFβ plus compound, 4 days; read-out: FN IC50 (fibronectin patches)): 0.521 µM
IC50 ([8]; Mus musculus, 96 h; Py2T, TGFβ plus compound, 4 days; read-out: SF IC50 (stress fibers)): 0.089 µM
IC50 ([8]; Mus musculus; Py2T; cell count decreased by 50% compared to DMSO control; read-out: Tox IC50): 6.81 µM
IC50 [8, 36]: 0.015 µM
Emax [8, 37]: 51%
IC50 [3, 32]: 0.16 µM
IC50 [3, 33]: 0.179 µM
IC50 [3, 34]: 0.031 µM
IC50 [3, 13]: > 25 µM
IC50 [3, 35]: 0.123 µM
IC50 [3, 36]: 0.0506 µM
Emax [3, 37]: 34.7%

Cc1[nH]c(/C=C2\C(=O)Nc3ccccc32)c(C)c1CCC(=O)O [TSU-68]
IC50 [11]: 0.0782 µM
IC50 [12]: 0.59 µM
IC50 [3, 16]: > 10 µM
IC50 [3, 17]: > 10 µM
IC50 [3, 18]: > 10 µM
IC50 [3, 19]: > 10 µM
IC50 [3, 27]: > 10 µM
Emax (maximal effect on cell count) [3, 15]: 1.7%
IC50 [4, 28]: 0.103 µM
IC50 [9]: > 10 µM
IC50 [5, 29]: > 10 µM
IC50 [6, 30]: > 10 µM

Clc1ccc(Nc2nnc(Cc3ccncc3)c3ccccc23)cc1 [Vatalanib]
IC50 [3, 13]: 10.6 µM
FA IC50 (focal adhesion formation) [3, 14]: n.m.
FN IC50 (fibronectin patch formation) [3, 14]: n.m.
SF IC50 (stress fibers) [3, 14]: n.m.
Emax (maximal effect on cell count) [3, 15]: n.m.

AZD4547
CCI IC50 (cell count increase) [3]: n.m.
Emax (maximal effect on cell count) [3]: n.m.
FA IC50 (focal adhesion formation) [3, 14]: n.m.
FN IC50 (fibronectin patch formation) [3, 14]: n.m.
SF IC50 (stress fibers) [3, 14]: n.m.
IC50 [3, 19]: 3.03 µM

Abamectin
FA IC50 (focal adhesion formation) [3, 14]: n.m.
FN IC50 (fibronectin patch formation) [3, 14]: n.m.
SF IC50 (stress fibers) [3, 14]: n.m.
IC50 [3, 19]: 9.5 µM
CCI IC50 (cell count increase) ([3]; NMuMG; cell count increased by 50% compared to 100% with 10 μM SB-431542): n.m.
Emax (maximal effect on cell count) [3, 15]: n.m.
